Experimental data reported in ChEMBL document CHEMBL1201862, “PubChem BioAssay data set” (2004).
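Following 48 hours of exposure in 96-well plates, responses at five concentrations were used to interpolate endpoints linearly. GI50 marks 50% less growth.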 Active and inactive are the calls of the source. No stated cut-off is given here; in the data, active = GI50 up to about 1.1 µM and inactive = higher.

Key:
Assay in all cases: NCI tumour cell line growth inhibition, 48 h
OVCAR-4 = tested on: OVCAR-4
IGROV-1 = tested on: IGROV-1
SNB-78 = tested on: SNB-78
DLD-1 = tested on: DLD-1
SK-MEL-28 = tested on: SK-MEL-28
TK-10 = tested on: TK-10
HOP-92 = tested on: HOP-92
OVCAR-8 = tested on: OVCAR-8
OVCAR-5 = tested on: OVCAR-5
U-251 = tested on: U-251
KM-20L2 = tested on: KM-20L2
NCI-H23 = tested on: NCI-H23
HL-60 = tested on: HL-60
RXF 393 = tested on: RXF 393
A498 = tested on: A498
EKVX = tested on: EKVX
UACC-62 = tested on: UACC-62
M14 = tested on: M14
COLO 205 = tested on: COLO 205
HOP-62 = tested on: HOP-62
HT-29 = tested on: HT-29
SF-268 = tested on: SF-268
NCI-H522 = tested on: NCI-H522
SF-539 = tested on: SF-539
CCRF-CEM = tested on: CCRF-CEM
HCC 2998 = tested on: HCC 2998
SN12C = tested on: SN12C
NCI-H226 = tested on: NCI-H226
RXF 631 = tested on: RXF 631
MOLT-4 = tested on: MOLT-4
SK-MEL-5 = tested on: SK-MEL-5
M19-MEL = tested on: M19-MEL
786-0 = tested on: 786-0
NCI-H460 = tested on: NCI-H460
SW-620 = tested on: SW-620
SK-OV-3 = tested on: SK-OV-3
XF498 = tested on: XF498
LOX IMVI = tested on: LOX IMVI
SNB-75 = tested on: SNB-75
DMS-114 = tested on: DMS-114
DMS-273 = tested on: DMS-273
RPMI-8226 = tested on: RPMI-8226
HCT-15 = tested on: HCT-15
HCT-116 = tested on: HCT-116
CAKI-1 = tested on: CAKI-1
LXFL 529 = tested on: LXFL 529
OVCAR-3 = tested on: OVCAR-3
KM12 = tested on: KM12
UACC-257 = tested on: UACC-257
ACHN = tested on: ACHN
UO-31 = tested on: UO-31
K562 = tested on: K562
SF-295 = tested on: SF-295
SR = tested on: SR
Malme-3M = tested on: Malme-3M
SNB-19 = tested on: SNB-19
A549 = tested on: A549
SK-MEL-2 = tested on: SK-MEL-2

With `O=CN1CCN(C=S)CC1` the GI50 (OVCAR-4) was > 100 µM (inactive), the GI50 (IGROV-1) was > 100 µM (inactive) and the GI50 (SNB-78) was > 100 µM (inactive). The GI50 (DLD-1) was > 100 µM (inactive), the GI50 (SK-MEL-28) was > 100 µM (inactive) and the GI50 (TK-10) was > 100 µM (inactive). The GI50 (HOP-92) was > 100 µM (inactive), the GI50 (OVCAR-8) was > 100 µM (inactive) and the GI50 (OVCAR-5) was > 100 µM (inactive). The GI50 (U-251) was > 100 µM (inactive), the GI50 (KM-20L2) was > 100 µM (inactive) and the GI50 (NCI-H23) was > 100 µM (inactive). For the same molecule, the GI50 (HL-60) was > 100 µM (inactive), the GI50 (RXF 393) was > 100 µM (inactive) and the GI50 (A498) was > 100 µM (inactive). The GI50 (EKVX) was > 100 µM (inactive), the GI50 (UACC-62) was > 100 µM (inactive) and the GI50 (M14) was > 100 µM (inactive). The GI50 (COLO 205) was > 100 µM (inactive), the GI50 (HOP-62) was > 100 µM (inactive) and the GI50 (HT-29) was > 100 µM (inactive). For the same molecule, the GI50 (SF-268) was > 100 µM (inactive), the GI50 (NCI-H522) was > 100 µM (inactive) and the GI50 (SF-539) was > 100 µM (inactive). The GI50 (CCRF-CEM) was > 100 µM (inactive), the GI50 (HCC 2998) was > 100 µM (inactive) and the GI50 (SN12C) was > 100 µM (inactive). The GI50 (NCI-H226) was > 100 µM (inactive), the GI50 (RXF 631) was > 100 µM (inactive) and the GI50 (MOLT-4) was > 100 µM (inactive). The GI50 (SK-MEL-5) was > 100 µM (inactive), the GI50 (M19-MEL) was > 100 µM (inactive) and the GI50 (786-0) was > 100 µM (inactive). For the same molecule, the GI50 (NCI-H460) was > 100 µM (inactive), the GI50 (SW-620) was > 100 µM (inactive) and the GI50 (SK-OV-3) was > 100 µM (inactive). The GI50 (XF498) was > 100 µM (inactive), the GI50 (LOX IMVI) was > 100 µM (inactive) and the GI50 (SNB-75) was > 100 µM (inactive). For the same molecule, the GI50 (DMS-114) was > 100 µM (inactive), the GI50 (DMS-273) was > 100 µM (inactive) and the GI50 (RPMI-8226) was > 100 µM (inactive). For the same molecule, the GI50 (HCT-15) was greater than 100 µM, the GI50 (HCT-116) was > 100 µM (inactive) and the GI50 (CAKI-1) was > 100 µM (inactive). For the same molecule, the GI50 (LXFL 529) was > 100 µM (inactive), the GI50 (OVCAR-3) was > 100 µM (inactive) and the GI50 (KM12) was > 100 µM (inactive). The GI50 (UACC-257) was > 100 µM (inactive), the GI50 (ACHN) was > 100 µM (inactive) and the GI50 (UO-31) was > 100 µM (inactive). For the same molecule, the GI50 (K562) was > 100 µM (inactive), the GI50 (SF-295) was > 100 µM (inactive) and the GI50 (SR) was 54.5 µM (inactive). For the same molecule, the GI50 (Malme-3M) was > 100 µM (inactive), the GI50 (SNB-19) was > 100 µM (inactive) and the GI50 (A549) was > 100 µM (inactive).
`N#CCCN(c1ccc(/C=C2\N=C(c3ccc(Cl)cc3)OC2=O)cc1)S(=O)(=O)c1ccccc1` was tested, and the GI50 (OVCAR-4) was > 100 µM (inactive), the GI50 (IGROV-1) was > 100 µM (inactive) and the GI50 (DLD-1) was > 100 µM (inactive). The GI50 (SK-MEL-28) was > 100 µM (inactive), the GI50 (TK-10) was > 100 µM (inactive) and the GI50 (OVCAR-8) was > 100 µM (inactive). For the same molecule, the GI50 (OVCAR-5) was > 100 µM (inactive), the GI50 (U-251) was > 100 µM (inactive) and the GI50 (KM-20L2) was > 100 µM (inactive). For the same molecule, the GI50 (NCI-H23) was > 100 µM (inactive), the GI50 (HL-60) was > 100 µM (inactive) and the GI50 (A498) was > 100 µM (inactive). For the same molecule, the GI50 (EKVX) was > 100 µM (inactive), the GI50 (UACC-62) was > 100 µM (inactive) and the GI50 (M14) was > 100 µM (inactive). For the same molecule, the GI50 (COLO 205) was > 100 µM (inactive), the GI50 (HOP-62) was > 100 µM (inactive) and the GI50 (HT-29) was > 100 µM (inactive). For the same molecule, the GI50 (SF-268) was > 100 µM (inactive), the GI50 (NCI-H522) was > 100 µM (inactive) and the GI50 (SF-539) was > 100 µM (inactive). The GI50 (HCC 2998) was > 100 µM (inactive), the GI50 (SN12C) was > 100 µM (inactive) and the GI50 (NCI-H226) was 96.2 µM (inactive). For the same molecule, the GI50 (RXF 631) was > 100 µM (inactive), the GI50 (MOLT-4) was > 100 µM (inactive) and the GI50 (SK-MEL-5) was > 100 µM (inactive). The GI50 (M19-MEL) was > 100 µM (inactive), the GI50 (786-0) was > 100 µM (inactive) and the GI50 (NCI-H460) was > 100 µM (inactive). For the same molecule, the GI50 (SW-620) was > 100 µM (inactive), the GI50 (SK-OV-3) was > 100 µM (inactive) and the GI50 (XF498) was > 100 µM (inactive). For the same molecule, the GI50 (LOX IMVI) was > 100 µM (inactive), the GI50 (SNB-75) was 76 µM (inactive) and the GI50 (DMS-114) was > 100 µM (inactive). For the same molecule, the GI50 (DMS-273) was > 100 µM (inactive), the GI50 (RPMI-8226) was > 100 µM (inactive) and the GI50 (HCT-15) was greater than 100 µM. The GI50 (HCT-116) was > 100 µM (inactive), the GI50 (CAKI-1) was > 100 µM (inactive) and the GI50 (LXFL 529) was > 100 µM (inactive). The GI50 (OVCAR-3) was > 100 µM (inactive), the GI50 (KM12) was > 100 µM (inactive) and the GI50 (UACC-257) was > 100 µM (inactive). For the same molecule, the GI50 (ACHN) was > 100 µM (inactive), the GI50 (SK-MEL-2) was > 100 µM (inactive) and the GI50 (UO-31) was > 100 µM (inactive). The GI50 (K562) was > 100 µM (inactive), the GI50 (SF-295) was > 100 µM (inactive) and the GI50 (SR) was > 100 µM (inactive). For the same molecule, the GI50 (SNB-19) was > 100 µM (inactive) and the GI50 (A549) was > 100 µM (inactive).
With `Cc1cc(C)nc(NS(=O)(=O)c2ccc(Nc3c4ccccc4nc4c(C(=O)NCCN(C)C)cccc34)cc2)n1` the GI50 (OVCAR-4) was 3.04 µM (inactive), the GI50 (IGROV-1) was 2.83 µM (inactive) and the GI50 (SNB-78) was 11.5 µM (inactive). The GI50 (DLD-1) was 5.15 µM (inactive), the GI50 (SK-MEL-28) was 5.97 µM (inactive) and the GI50 (TK-10) was 10.6 µM (inactive). For the same molecule, the GI50 (OVCAR-8) was 0.675 µM (active), the GI50 (OVCAR-5) was 12.8 µM (inactive) and the GI50 (U-251) was 3.72 µM (inactive). For the same molecule, the GI50 (KM-20L2) was 6.61 µM (inactive), the GI50 (NCI-H23) was 4.26 µM (inactive) and the GI50 (HL-60) was 1.49 µM (inactive). For the same molecule, the GI50 (RXF 393) was 6.32 µM (inactive), the GI50 (EKVX) was 10.5 µM (inactive) and the GI50 (UACC-62) was 3.55 µM (inactive). For the same molecule, the GI50 (M14) was 6.5 µM (inactive), the GI50 (COLO 205) was 1.86 µM (inactive) and the GI50 (HOP-62) was 2.52 µM (inactive). The GI50 (HT-29) was 1.14 µM (inactive), the GI50 (SF-268) was 2.57 µM (inactive) and the GI50 (NCI-H522) was 0.566 µM (active). The GI50 (SF-539) was 2.85 µM (inactive), the GI50 (CCRF-CEM) was 1.26 µM (inactive) and the GI50 (SN12C) was 2.79 µM (inactive). For the same molecule, the GI50 (NCI-H226) was 2.17 µM (inactive), the GI50 (RXF 631) was 0.986 µM (active) and the GI50 (MOLT-4) was 0.277 µM (active). For the same molecule, the GI50 (SK-MEL-5) was 5.75 µM (inactive), the GI50 (M19-MEL) was 3.44 µM (inactive) and the GI50 (786-0) was 11.6 µM (inactive). For the same molecule, the GI50 (NCI-H460) was 0.771 µM (active), the GI50 (SW-620) was 0.764 µM (active) and the GI50 (XF498) was 13.7 µM (inactive). The GI50 (LOX IMVI) was 1.74 µM (inactive), the GI50 (SNB-75) was 10.7 µM (inactive) and the GI50 (DMS-114) was 1.04 µM (active). For the same molecule, the GI50 (DMS-273) was 0.813 µM (active), the GI50 (HCT-15) was 5.66 µM and the GI50 (HCT-116) was 1.53 µM (inactive). The GI50 (LXFL 529) was 4.25 µM (inactive), the GI50 (KM12) was 3.43 µM (inactive) and the GI50 (ACHN) was 3.49 µM (inactive). The GI50 (SK-MEL-2) was 4.89 µM (inactive), the GI50 (UO-31) was 1.49 µM (inactive) and the GI50 (K562) was 2.08 µM (inactive). The GI50 (SF-295) was 1.91 µM (inactive), the GI50 (SR) was 0.302 µM (active) and the GI50 (SNB-19) was 1.85 µM (inactive). For the same molecule, the GI50 (A549) was 3.13 µM (inactive).
